These results are taken from US20230002374A1, “GPR52 MODULATOR COMPOUNDS” (Heptares Therapeutics Limited, priority 2019, published 2023).

The target in the test is human GPR52 (Homo sapiens, UniProt Q9Y2T5). Description: GPR52 Agonist Functional cAMP Assay.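 On all read-outs here: HEKf cells transduced with GPR52 BacMam for 24 h, 2000 per well, exposed to compounds 30 min at 37° C with 0.5 mM IBMX, cAMP read by HTRF.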 Conditions: for Emax: maximal response normalised to DMSO (0%) and maximal compound 7m (J. Med. Chem., 2014, 57, 5226) response (100%); for EC50: pEC50 average, HEKf cells infected with human GPR52 BacMam virus, cAMP HTRF, 30 min at 37° C. In general terms: TR-FRET usually uses a lanthanide donor and a delayed reading to cut background.
Chain of human GPR52 (Q9Y2T5 whole entry): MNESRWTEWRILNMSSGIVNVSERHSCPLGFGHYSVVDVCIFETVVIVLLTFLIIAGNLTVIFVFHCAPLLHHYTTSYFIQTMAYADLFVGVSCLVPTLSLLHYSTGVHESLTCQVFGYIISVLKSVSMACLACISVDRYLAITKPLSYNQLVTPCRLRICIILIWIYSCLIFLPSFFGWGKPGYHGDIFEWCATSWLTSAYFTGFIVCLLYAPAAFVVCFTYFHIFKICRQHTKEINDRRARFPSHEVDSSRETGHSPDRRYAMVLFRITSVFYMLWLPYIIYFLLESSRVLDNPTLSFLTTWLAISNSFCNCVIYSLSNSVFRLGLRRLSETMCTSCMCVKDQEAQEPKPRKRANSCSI

Method: Following BacMam infection, cells were pelleted by centrifugation (335 g, 5 min), resuspended in cell freezing medium (Sigma) and frozen at −150° C. until required. On experiment day, 25 nL GPR52 compound dilutions, prepared in DMSO, were stamped onto proxiplates (PerkinElmer) by a LabCyte ECHO acoustic dispenser. Frozen cells were thawed and resuspended in assay stimulation buffer (Cisbio) containing 0.5 mM 3-iso-butyl-1-methylxanthine (IBMX, Sigma) to achieve a density of 2000 cells per well. 10 μl cells were added to assay plates using a Multidrop Combi Reagent Dispenser (ThermoFisher) before centrifugation (335 g, 1 min). Cells were incubated with compounds at 37° C. for 30 min prior to addition of cAMP detection reagents (HiRange cAMP kit, Cisbio) which were prepared according to the manufacturer's instructions. Plates were shaken for 1 h at room temperature before reading on a PHERAstar FS plate reader (BMG Labtech) using standard HTRF settings.

With `O=C1NCCc2c1cnn2-c1ccnc(Cc2ccc(C(F)(F)F)c(F)c2)c1` [Example 54, 1-(2-(3-fluoro-4-(trifluoromethyl)benzyl)pyridin-4-yl)-1,5,6,7-tetrahydro-4H-pyrazolo[4,3-c]pyridin-4-one], the Emax (in general, the greatest response seen or fitted, relative to the assay's reference) was 63% and a half-maximal response (EC50) required 398 nM.
Turning to `Cc1nn(-c2ccnc(Cc3cc(F)cc(Cl)c3)c2)c2c1C(=O)NCC2` [Example 79, 1-(2-(3-chloro-5-fluorobenzyl)pyridin-4-yl)-3-methyl-1,5,6,7-tetrahydro-4H-pyrazolo[4,3-c]pyridin-4-one], the Emax was found to be 99% and the EC50 (in general, the concentration at which the effect is half-maximal) was 12.6 nM.
Consider `O=C1NCCc2c1cnn2-c1cc(Cc2cc(F)cc(C(F)(F)F)c2)cnn1` [Example 15, 1-(5-(3-fluoro-5-(trifluoromethyl)benzyl)pyridazin-3-yl)-1,5,6,7-tetrahydro-4H-pyrazolo[4,3-c]pyridin-4-one], for which the Emax amounted to 95% and the EC50 is 126 nM.
The corresponding values for `Cc1cc(Cc2cc(-n3ncc4c3CCNC4=O)ccn2)cc(C(F)(F)F)c1` [Example 28, 1-(2-(3-methyl-5-(trifluoromethyl)benzyl)pyridin-4-yl)-1,5,6,7-tetrahydro-4H-pyrazolo[4,3-c]pyridin-4-one] are 88% and 100 nM.
Regarding `O=C1NCCc2c1cnn2-c1ccnc(Cc2ccc3sccc3c2)c1` [Example 59, 1-(2-(benzo[b]thiophen-5-ylmethyl)pyridin-4-yl)-1,5,6,7-tetrahydro-4H-pyrazolo[4,3-c]pyridin-4-one], the Emax is 79% and the EC50 is 79.4 nM.
Regarding `O=C1NCCc2nn(-c3cc(Cc4cccc(C(F)(F)F)c4)ccn3)cc21` [Example 8, 2-(4-(3-(trifluoromethyl)benzyl)pyridin-2-yl)-2,5,6,7-tetrahydro-4H-pyrazolo[4,3-c]pyridin-4-one], the Emax was 75% and the EC50 is 316 nM.
Take `O=C1NCCc2c1cnn2-c1ccnc(Cc2cc(F)c(F)c(Cl)c2)c1` [Example 66, 1-(2-(3-chloro-4,5-difluorobenzyl)pyridin-4-yl)-1,5,6,7-tetrahydro-4H-pyrazolo[4,3-c]pyridin-4-one]: the Emax was found to be 100% and the EC50 is 25.1 nM.
Turning to `O=C1NCCc2c1c(CO)nn2-c1ccnc(Cc2cc(F)cc(C(F)(F)F)c2)c1` [Example 114, 1-(2-(3-fluoro-5-(trifluoromethyl)benzyl)pyridin-4-yl)-3-(hydroxymethyl)-1,5,6,7-tetrahydro-4H-pyrazolo[4,3-c]pyridin-4-one], the Emax was found to be 93% and the EC50 is 39.8 nM.
The compound `O=C1NCCc2c1cnn2-c1ccnc(C(F)c2cc(F)cc(C(F)(F)F)c2)c1` (stereo not drawn) [Example 37, 1-(2-(fluoro(3-fluoro-5-(trifluoromethyl)phenyl)methyl)pyridin-4-yl)-1,5,6,7-tetrahydro-4H-pyrazolo[4,3-c]pyridin-4-one] showed an Emax of 93% and an EC50 of 126 nM.
For the compound `O=C1NCCc2c1cnn2-c1ccnc(Cc2cc(Cl)c(F)c(C(F)(F)F)c2)c1` [Example 73, 1-(2-(3-chloro-4-fluoro-5-(trifluoromethyl)benzyl)pyridin-4-yl)-1,5,6,7-tetrahydro-4H-pyrazolo[4,3-c]pyridin-4-one], the Emax worked out at 88% and the EC50 was 50.1 nM.
The compound `O=C1NCCc2c1cnn2-c1ccnc(Oc2cc(F)cc(C(F)(F)F)c2)c1` [Example 52, 1-(2-(3-fluoro-5-(trifluoromethyl)phenoxy)pyridin-4-yl)-1,5,6,7-tetrahydro-4H-pyrazolo[4,3-c]pyridin-4-one] had an Emax of 69% and a concentration for a half-maximal effect (EC50) of 1580 nM.
As for `O=C1c2cnn(-c3ccnc(Cc4cc(F)cc(C(F)(F)F)c4)c3)c2CCN1CCO` [Example 105, 1-(2-(3-fluoro-5-(trifluoromethyl)benzyl)pyridin-4-yl)-5-(2-hydroxyethyl)-1,5,6,7-tetrahydro-4H-pyrazolo[4,3-c]pyridin-4-one], the Emax came to 97% and it took 63.1 nM to reach a half-maximal effect (EC50).
For `O=C1NCCc2c1cnn2-c1cncc(Oc2cc(F)cc(C(F)(F)F)c2)c1` [Example 103, 1-(5-(3-fluoro-5-(trifluoromethyl)phenoxy)pyridin-3-yl)-1,5,6,7-tetrahydro-4H-pyrazolo[4,3-c]pyridin-4-one], the Emax was determined as 68% and the EC50 was 1000 nM.
Compound `O=C1NCCc2c1cnn2-c1ccnc(Cc2cc(F)c(Cl)c(F)c2)c1` [Example 58, 1-(2-(4-chloro-3,5-difluorobenzyl)pyridin-4-yl)-1,5,6,7-tetrahydro-4H-pyrazolo[4,3-c]pyridin-4-one] had an Emax of 79% and an EC50 of 100 nM.
Take `O=C1NCCc2c1cnn2-c1ccnc(Cc2cc(C(F)(F)F)ccc2F)c1` [Example 30, 1-(2-(2-fluoro-5-(trifluoromethyl)benzyl)pyridin-4-yl)-1,5,6,7-tetrahydro-4H-pyrazolo[4,3-c]pyridin-4-one]: the Emax came out at 77% and the midpoint of the response, the EC50, lay at 794 nM.
The matching figures for `Cc1nn(-c2ccnc(Cc3cc(F)c(F)c(F)c3)c2)c2c1C(=O)NCC2` [Example 77, 3-methyl-1-(2-(3,4,5-trifluorobenzyl)pyridin-4-yl)-1,5,6,7-tetrahydro-4H-pyrazolo[4,3-c]pyridin-4-one]: 95% and 15.8 nM.
Compound `Cc1nn(-c2ccnc(Cc3ccc(OC(F)F)nc3)c2)c2c1C(=O)NCC2` [Example 94, 1-(2-((6-(difluoromethoxy)pyridin-3-yl)methyl)pyridin-4-yl)-3-methyl-1,5,6,7-tetrahydro-4H-pyrazolo[4,3-c]pyridin-4-one] had an Emax of 78% and an EC50 of 398 nM.
With `O=C1NCCc2c1cnn2-c1ccnc(Cc2ccc(F)c(Cl)c2)c1` [Example 25, 1-(2-(3-chloro-4-fluorobenzyl)pyridin-4-yl)-1,5,6,7-tetrahydro-4H-pyrazolo[4,3-c]pyridin-4-one], the Emax stood at 89% and a half-maximal response (EC50) required 158 nM.
The corresponding values for `O=C1NOCc2c1cnn2-c1cc(Cc2cc(F)cc(C(F)(F)F)c2)ccn1` [Example 47, 1-(4-(3-fluoro-5-(trifluoromethyl)benzyl)pyridin-2-yl)-1,7-dihydropyrazolo[4,3-c/][1,2]oxazin-4(5H)-one] are 81% and 79.4 nM.
`O=C1NCCc2c1cnn2-c1ccnc(Cc2cc(F)cc(C3(C(F)(F)F)CC3)c2)c1` [Example 74, 1-(2-(3-fluoro-5-(1-(trifluoromethyl)cyclopropyl)benzyl)pyridin-4-yl)-1,5,6,7-tetrahydro-4H-pyrazolo[4,3-c]pyridin-4-one] showed an Emax of 53% and an EC50 of 501 nM.
The matching figures for `CN1CCc2nn(-c3cc(Cc4cccc(C(F)(F)F)c4)ccn3)nc2C1=O` [Example 44, 5-methyl-2-(4-(3-(trifluoromethyl)benzyl)pyridin-2-yl)-2,5,6,7-tetrahydro-4H-[1,2,3]triazolo[4,5-c]pyridin-4-one]: 74% and 2000 nM.
For `CC1Cc2c(cnn2-c2ccnc(Cc3cc(F)cc(C(F)(F)F)c3)c2)C(=O)N1` (single isomer, unassigned) [Example 40 Isomer 1, 1-(2-(3-fluoro-5-(trifluoromethyl)benzyl)pyridin-4-yl)-6-methyl-1,5,6,7-tetrahydro-4H-pyrazolo[4,3-c]pyridin-4-one], the Emax worked out at 95% and the response was half-maximal at 31.6 nM (EC50).
With `COc1cc(Cc2cc(-n3ncc4c3CCNC4=O)ccn2)cc(C(F)(F)F)c1` [Example 57, 1-(2-(3-methoxy-5-(trifluoromethyl)benzyl)pyridin-4-yl)-1,5,6,7-tetrahydro-4H-pyrazolo[4,3-c]pyridin-4-one], the Emax was found to be 44% and the EC50 is 794 nM.
The corresponding values for `O=C1NCCOc2c1cnn2-c1cc(Cc2cc(F)cc(C(F)(F)F)c2)ccn1` [Example 14, 1-(4-(3-fluoro-5-(trifluoromethyl)benzyl)pyridin-2-yl)-6,7-dihydro-1H-pyrazolo[4,3-f][1,4]oxazepin-4(5H)-one] are 103% and 10 nM.
`O=C1c2cnn(-c3cc(Cc4cc(F)cc(C(F)(F)F)c4)ccn3)c2CCN1CCO` [Example 107, 1-(4-(3-fluoro-5-(trifluoromethyl)benzyl)pyridin-2-yl)-5-(2-hydroxyethyl)-1,5,6,7-tetrahydro-4H-pyrazolo[4,3-c]pyridin-4-one] had an Emax of 99% and an EC50 of 12.6 nM.
Compound `O=C1NCCCc2c1nnn2-c1cc(Cc2cc(F)cc(C(F)(F)F)c2)ccn1` [Example 46, 1-(4-(3-fluoro-5-(trifluoromethyl)benzyl)pyridin-2-yl)-5,6,7,8-tetrahydro-[1,2,3]triazolo[4,5-c]azepin-4(1H)-one] showed a maximum response (Emax) of 90% and an EC50 of 200 nM.
In the case of `O=C(c1cc(F)cc(C(F)(F)F)c1)c1cc(-n2ncc3c2CCNC3=O)ccn1` [Example 35, 1-(2-(3-fluoro-5-(trifluoromethyl)benzoyl)pyridin-4-yl)-1,5,6,7-tetrahydro-4H-pyrazolo[4,3-c]pyridin-4-one], the Emax amounted to 40% and the EC50 was 3160 nM.
Turning to `COc1ccc(Cc2cc(-n3ncc4c3CCNC4=O)ccn2)cc1C(F)(F)F` [Example 55, 1-(2-(4-methoxy-3-(trifluoromethyl)benzyl)pyridin-4-yl)-1,5,6,7-tetrahydro-4H-pyrazolo[4,3-c]pyridin-4-one], the Emax amounted to 69% and the EC50 is 398 nM.
Compound `Cc1nn(-c2ccnc(Cc3ccc(F)c(Cl)c3)c2)c2c1C(=O)NCC2` [Example 80, 1-(2-(3-chloro-4-fluorobenzyl)pyridin-4-yl)-3-methyl-1,5,6,7-tetrahydro-4H-pyrazolo[4,3-c]pyridin-4-one] gave an Emax of 97% and an EC50 of 10 nM.
`Cc1nn(-c2ccnc(Cc3cccc(C(F)(F)F)c3)c2)c2c1C(=O)NCC2` [Example 78, 3-methyl-1-(2-(3-(trifluoromethyl)benzyl)pyridin-4-yl)-1,5,6,7-tetrahydro-4H-pyrazolo[4,3-c]pyridin-4-one] had an Emax of 94% and an EC50 of 20 nM.
